Test results: US20230172849A1, “INHALED STATINS FOR TREATMENT OF VIRAL RESPIRATORY DISEASES” (priority 2020, published 2023)
Entries after “also recorded” stand apart in the source; their conditions may differ. Where two headings read alike, the source gives them in different places.

Legend:
SARS-CoV-2 [1] = experiment: hamster model of SARS-CoV-2 infection, intranasally inhaled treatment; assay type: in vivo
SARS-CoV-2 [2] = experiment: SARS-CoV-2 viral load by RT-qPCR in Calu-3 supernatant; assay type: cell-based
[3] = test system: SARS-CoV-2-induced cytokine and chemokine production; assay type: cell-based; details: Calu-3 cells; Cases A-C
SARS-CoV-2 [4] = assay type: cell-based
Calu-3 cells = Calu-3 cells or Vero cells
SARS-CoV-2 [5] = experiment: combination therapy, viral load by RT-PCR (ORF1ab gene) in Calu-3 cells; assay type: cell-based; design: key to enhanced decrease of viral load, combination vs two single agents: Each combination that showed an enhanced decrease of viral load as compared with the two single agents is denoted by “E”; Combinations that showed a slight trend towards an enhanced decrease of viral load as compared with the two single agents is denoted by “(e)”; —
[6] = molecular target: SARS-CoV-2 Spike S1 (RBD) (Severe acute respiratory syndrome coronavirus 2, UniProt P0DTC2); experiment: biochemical; assay type: binding

Compound: O=C([O-])C[C@H](O)C[C@H](O)/C=C/c1c(C2CC2)nc2ccccc2c1-c1ccc(F)cc1.O=C([O-])C[C@H](O)C[C@H](O)/C=C/c1c(C2CC2)nc2ccccc2c1-c1ccc(F)cc1.[Ca+2] [INS103, Pitavastatin Calcium]
- viral titers in throat swabs (SARS-CoV-2 [1]; 3 mg/kg i.n., Day 1): reduced viral titers
- viral titer in the nasal swabs and tracheas (SARS-CoV-2 [1]; 3 mg/kg i.n., Day 3 post-infection): reduction of viral titer
- viral titer in lung samples (SARS-CoV-2 [1]; 3 mg/kg i.n., Day 3 post-infection, R4 samples): significant decrease in viral titer
- percentage of affected lung (inflammation) (SARS-CoV-2 [1]; 3 mg/kg i.n., day 6, virus-infected controls ˜50%): ~30%
- viral titers in throat swabs (reduction trend) (SARS-CoV-2 [1]; 3 mg/kg i.n., days 2 or 3): not observed
- viral titers from the nasal swabs (SARS-CoV-2 [1]; 3 mg/kg i.n., vs DPBS or control vehicle (DV)): trend of reduced viral titers
- lung inflammation (histopathology) (SARS-CoV-2 [1]; 3 mg/kg i.n., vs controls): reduction in acute ling inflammation; also recorded: mild/moderate reduction in lung inflammation
- weight loss of infected hamsters (SARS-CoV-2 [1]; pitavastatin 3 mg/kg i.n., D-2 to 5, statistical significance at day 4): less weight loss
- SARS-CoV-2 viral load (SARS-CoV-2 [2]; Cases A-C, 5, 1, 0.2 μM): dose-dependently reduced viral load
- SARS-CoV-2 viral load (SARS-CoV-2 [2]; high dose 5 uM): reduced SARS-CoV-2 viral load
- SARS-CoV-2-induced cytokine and chemokine production [3]: inhibited
- SARS-CoV-2-induced loss of cell viability in Calu-3 cells (overall conclusion) (SARS-CoV-2 [4]; Calu-3 cells): inhibited SARS-CoV-2-induced loss of cell viability
- protection against virus-induced loss of cell viability (SARS-CoV-2 [4]; Case A: compound added 1 h after infection, 72 h contact): dose-dependent protection
- Average (percent cell viability) (SARS-CoV-2 [4]; Case A: compound added 1 h after infection, 72 h contact, 0.2 uM): 4.83%
- Average (percent cell viability) (SARS-CoV-2 [4]; Case A: compound added 1 h after infection, 72 h contact, 1 uM): 9.66%
- Average (percent cell viability) (SARS-CoV-2 [4]; Case A: compound added 1 h after infection, 72 h contact, 5 uM): 17.37%
- Average (percent cell viability) (SARS-CoV-2 [4]; Case B: compound added 24 h after infection, 48 h contact, 0.2 uM): 0.5243%
- Average (percent cell viability) (SARS-CoV-2 [4]; Case B: compound added 24 h after infection, 48 h contact, 1 uM): 1.724%
- Average (percent cell viability) (SARS-CoV-2 [4]; Case B: compound added 24 h after infection, 48 h contact, 5 uM): −3.025%
- Average (percent cell viability) (SARS-CoV-2 [4]; Case C: compound added 48 h after infection, 24 h contact, 0.2 uM): 1.847%
- Average (percent cell viability) (SARS-CoV-2 [4]; Case C: compound added 48 h after infection, 24 h contact, 1 uM): −1.192%
- Average (percent cell viability) (SARS-CoV-2 [4]; Case C: compound added 48 h after infection, 24 h contact, 5 uM): −1.208%
- Average (percent cell viability) (SARS-CoV-2 [4]; Case D: pre-treated 6 h, then infected 72 h, 0.2 uM): 34.83%
- Average (percent cell viability) (SARS-CoV-2 [4]; Case D: pre-treated 6 h, then infected 72 h, 1 uM): 32.21%
- Average (percent cell viability) (SARS-CoV-2 [4]; Case D: pre-treated 6 h, then infected 72 h, 5 uM): 28.3%
- protection against virus-induced loss of cell viability (SARS-CoV-2 [4]; Case D: pre-treated 6 hours, then infected 72 hours): dose-independent protection
- protection against virus-induced loss of cell viability (SARS-CoV-2 [4]; Case D: pre-treated 6 hours, then infected 72 hours, listed as INS-103): inhibit SARS-CoV-2-induced loss of cell viability
- Average (percent cell viability) (SARS-CoV-2 [4]; Case E: pre-treated 24 h, then infected 72 h, 0.2 uM): −3.00%
- Average (percent cell viability) (SARS-CoV-2 [4]; Case E: pre-treated 24 h, then infected 72 h, 1.0 uM): −0.20%
- Average (percent cell viability) (SARS-CoV-2 [4]; Case E: pre-treated 24 h, then infected 72 h, 5.0 uM): 46.71%
- protection against virus-induced loss of cell viability (SARS-CoV-2 [4]; Case E: pre-treated 24 hours, then infected 72 hours, high and medium doses of INS102, high dose of INS103): dose-dependent protection
- anti-viral protection (cell viability) (SARS-CoV-2 [4]; Case F: 1 hour, then virus 72 hours, high dose of INS102, all doses of INS103): dose-dependent anti-viral protection
- Average (percent cell viability) (SARS-CoV-2 [4]; Case F: compound 1 h before infection (coinc 1 h), then virus 72 h, 0.2 uM): 9.881%
- Average (percent cell viability) (SARS-CoV-2 [4]; Case F: compound 1 h before infection (coinc 1 h), then virus 72 h, 1 uM): 15.82%
- Average (percent cell viability) (SARS-CoV-2 [4]; Case F: compound 1 h before infection (coinc 1 h), then virus 72 h, 5 uM): 19.96%
- cytotoxicity (Calu-3 cells): not cytotoxic
- decrease in viral load, combination with remdesivir or dexamethasone vs monotherapies (SARS-CoV-2 [5]; FIGS. 30, 31, statin and SARS-CoV-2 (MOI 0.01) mixed 1 hour at room temperature, 24 hours post infection): enhanced
- enhanced decrease of viral load, combination vs two single agents (SARS-CoV-2 [5]; statin 0.2 μM + Dex 0.1 μM): —
- enhanced decrease of viral load, combination vs two single agents (SARS-CoV-2 [5]; statin 0.2 μM + Dex 1 μM): (e)
- enhanced decrease of viral load, combination vs two single agents (SARS-CoV-2 [5]; statin 0.2 μM + Dex 10 μM): —
- enhanced decrease of viral load, combination vs two single agents (SARS-CoV-2 [5]; statin 0.2 μM + Remde 1): (e)
- enhanced decrease of viral load, combination vs two single agents (SARS-CoV-2 [5]; statin 0.2 μM + Remde 10): (e)
- enhanced decrease of viral load, combination vs two single agents (SARS-CoV-2 [5]; statin 0.2 μM + Remde 100): (e)
- enhanced decrease of viral load, combination vs two single agents (SARS-CoV-2 [5]; statin 1 μM + Dex 0.1 μM): —
- enhanced decrease of viral load, combination vs two single agents (SARS-CoV-2 [5]; statin 1 μM + Dex 1 μM): enhancement in the decrease of viral load and E
- enhanced decrease of viral load, combination vs two single agents (SARS-CoV-2 [5]; statin 1 μM + Dex 10 μM): —
- enhanced decrease of viral load, combination vs two single agents (SARS-CoV-2 [5]; statin 1 μM + Remde 1): —
- enhanced decrease of viral load, combination vs two single agents (SARS-CoV-2 [5]; statin 1 μM + Remde 10): —
- enhanced decrease of viral load, combination vs two single agents (SARS-CoV-2 [5]; statin 1 μM + Remde 100): —
- enhanced decrease of viral load, combination vs two single agents (SARS-CoV-2 [5]; statin 5 μM + Dex 0.1 μM): E
- enhanced decrease of viral load, combination vs two single agents (SARS-CoV-2 [5]; statin 5 μM + Dex 1 μM): —
- enhanced decrease of viral load, combination vs two single agents (SARS-CoV-2 [5]; statin 5 μM + Dex 10 μM): —
- enhanced decrease of viral load, combination vs two single agents (SARS-CoV-2 [5]; statin 5 μM + Remde 1): —
- enhanced decrease of viral load, combination vs two single agents (SARS-CoV-2 [5]; statin 5 μM + Remde 10): —
- enhanced decrease of viral load, combination vs two single agents (SARS-CoV-2 [5]; statin 5 μM + Remde 100): —
- binding to SARS-COV-2 S-protein (in words) ([6]; MST binding assay): bind with SARS-COV-2 S-protein at nanomolar (nM) concentrations
- Kd ([6]; Table 1, MST, 25 nM labelled SARS-CoV-2 S1, read-out: Affinity): 678 to 1000 nM
- Remarks ([6]; Table 1, binding to SARS-CoV-2 S1): Good binding
- S/N ([6]; Table 1, signal to noise ratio of MST binding): 14.4-17.3
- Kd ([6]; Table 2, read-out: Affinity (nM) of binding to SARS-COV2 Spike protein): 678 to 1000 nM
